What all share (type): in vivo
The test system of data set [1] is Mamestra brassicae. Briefly: Effect on Mamestra brassicae, insecticidal activity as in Biological Test Example 1.
The test system of data set [2] is Spodoptera litura. The data set is described as follows: Effect on Spodoptera litura, sprayed Chinese cabbage leaves, death rate. The note with it: third-instar larvae, 48 hours. The protocol: An emulsion was prepared from each of the present compounds listed below, in the same manner as that of Preparation Example 2. The obtained emulsion was diluted with water so that the concentration of the present compound would be 50 ppm, 5 ppm or 0.5 ppm to obtain diluted aqueous emulsions.
The diluted aqueous emulsions were sprayed on leaves of Chinese cabbages of a 3-4 leave stage. After drying with air, the leaves were placed in a plastic vessel having a size of 21 cm×13 cm×3 cm (depth). Ten third-instar larvae of Spodoptera litura were released in the vessel. The vessel was closed and placed in a room kept at a constant temperature of 26. 48 hours after, the numbers of surviving and dead ones were counted, and the death rate was calculated.

Data set [3] has as its system Plutella xylostella. Briefly: Effect on Plutella xylostella, sprayed Chinese cabbage leaves, death rate. The settings on record: third-instar larvae, 48 hours. The protocol:
Emulsions of varied concentrations prepared in the same manner as that of the above Biological Test Example 1 were sprayed on leaves of Chinese cabbages of a 3-4 leave stage. After drying with air, the leaves were placed in a plastic vessel having a size of 9 cm (inside diameter)×6.5 cm (depth). Ten third-instar larvae of Plutella xylostella were released in the vessel. The vessel was closed and placed in a room kept at a constant temperature of 26. 48 hours after, the numbers of surviving and dead ones were counted, and the death rate was calculated. The results are shown in following Table 7 together with those obtained with comparative compounds.

The nature of data set [4]: Peroral acute toxicity for mouse. The note with it: 300 mg/kg peroral, male ICR mice, 7 days observation. The protocol:
Each of the present compounds was suspended in a 0.5% aqueous carboxymethylcellulose solution to obtain a suspension of a predetermined concentration. Male SIc:ICR mice (SPF) of 6 weeks old (body weight: 29.5 to 34.4 g) were fasted for 3 hours. 1 ml, per 100 g of the body weight, of the suspension was forcibly fed into the stomach of each mouse. Then, a food and water were given to the mice and they were bred in a cage. The observation period after the administration was 7 days. During that period, the life and death, general conditions and change in body weight of the mice were observed. Thereafter, pathologico-anatomic experiments were carried out (two mice in each group).

`CN(C)C(=O)C(=O)N/N=C(/c1ccc(Cl)cc1)c1ccc(OS(=O)(=O)C(F)(F)F)cc1` [Compound 1-133]: the insecticidal activity (death rate) in data set [1] (1.25 ppm) is 44%; in data set [1] (2.5 ppm), 100%; in data set [1] (50 ppm), 100%. Moreover, the death rate turned out to be 90% in data set [2] (0.5 ppm), 100% in data set [2] (5 ppm) and 100% in data set [2] (50 ppm).
Turning to `CNC(=O)C(=O)N(C)N=C(c1ccc(Cl)cc1)c1ccc(OS(=O)(=O)C(F)(F)F)cc1` [Compound 1-178], the death rate in data set [2] (0.5 ppm) was 30%; in data set [2] (5 ppm), 100%; in data set [2] (50 ppm) it was 100%.
Consider `CCNC(=O)C(=O)NN=C(c1ccc(Cl)cc1)c1ccc(CSC(F)(F)F)cc1` [Compound 2-6], for which the death rate in data set [2] (0.5 ppm) turned out to be 50%; in data set [2] (5 ppm), 100%; in data set [2] (50 ppm) it was 100%.
As to `CNC(=O)C(=O)NN=C(c1ccc(Cl)cc1)c1ccc(OS(=O)(=O)C(F)(F)F)cc1` [Compound 1-3, 4-[(4-chlorophenyl)-(methylaminoxalyl-hydrazono)-methyl]-phenyl trifluoromethanesulfonate], the death rate in data set [3] (0.5 ppm) was found to be 0; in data set [3] (5 ppm), 100; in data set [3] (50 ppm), 100; in data set [2] (0.5 ppm) it was 50%; in data set [2] (5 ppm) it was 100%; in data set [2] (50 ppm) it was 100%. Further, the insecticidal activity (death rate) turned out to be 67% in data set [1] (1.25 ppm), 89% in data set [1] (2.5 ppm) and 100% in data set [1] (50 ppm).
On to `COC(=O)C(=O)N/N=C(/c1ccc(Cl)cc1)c1ccc(OS(C)(=O)=O)cc1` [Comparative compound C, reference compound], for which the death rate in data set [2] (5 ppm) was found to be 0%; in data set [2] (50 ppm) it was 100%.
For `CCNC(=O)C(=O)NN=C(c1ccc(Br)cc1)c1ccc(OS(=O)(=O)C(F)(F)F)cc1` [Compound 1-517], the insecticidal activity (death rate) in data set [1] (1.25 ppm), in data set [1] (2.5 ppm) and in data set [1] (50 ppm) was 100% in each case. Moreover, the death rate in data set [2] (0.5 ppm) stood at 60%; in data set [2] (5 ppm), 100%; in data set [2] (50 ppm) it was 100%.
Consider `O=C(NN=C(c1ccc(Cl)cc1)c1ccc(OS(=O)(=O)C(F)(F)F)cc1)C(=O)NC1CC1` [Compound 1-43], for which the insecticidal activity (death rate) in data set [1] (1.25 ppm) was 33%; in data set [1] (2.5 ppm), 67%; in data set [1] (50 ppm), 100%. Besides, the death rate in data set [2] (0.5 ppm) stood at 90%; in data set [2] (5 ppm), 100%; in data set [2] (50 ppm), 100%.
As for `C#CCNC(=O)C(=O)NN=C(c1ccc(Cl)cc1)c1ccc(OS(=O)(=O)C(F)(F)F)cc1` [Compound 1-37], the insecticidal activity (death rate) worked out at 70% in data set [1] (1.25 ppm), 100% in data set [1] (2.5 ppm) and 100% in data set [1] (50 ppm). For the same compound, the death rate in data set [2] (0.5 ppm) was determined as 60%; in data set [2] (5 ppm), 100%; in data set [2] (50 ppm), 100%.
Take `CCCNC(=O)C(=O)NN=C(c1ccc(Cl)cc1)c1ccc(OS(=O)(=O)C(F)(F)F)cc1` [Compound 1-7]: the results for the insecticidal activity (death rate) in data set [1] (1.25 ppm), in data set [1] (2.5 ppm) and in data set [1] (50 ppm) were 50%, 70% and 100%, respectively. In addition, the death rate was 70% in data set [2] (0.5 ppm), 100% in data set [2] (5 ppm) and 100% in data set [2] (50 ppm).
As to `C=CCNC(=O)C(=O)NN=C(c1ccc(Cl)cc1)c1ccc(OS(=O)(=O)C(F)(F)F)cc1` [Compound 1-27], the figures for the insecticidal activity (death rate) in data set [1] (1.25 ppm), in data set [1] (2.5 ppm) and in data set [1] (50 ppm) were 80%, 100% and 100%, respectively. The death rate turned out to be 70% in data set [2] (0.5 ppm), 100% in data set [2] (5 ppm) and 100% in data set [2] (50 ppm).
For “4-[(4-chlorophenyl)-(ethylaminoxalyl-hydrazono)-methyl]phenyl trifuoromethanesulfonate [Compound 1-5]”, the death rate in data set [3] (0.5 ppm) is 0; in data set [3] (5 ppm), 100; in data set [3] (50 ppm), 100; in data set [2] (0.5 ppm), 100%; in data set [2] (5 ppm) it was 100%; in data set [2] (50 ppm) it was 100%. The values for the insecticidal activity (death rate) in data set [1] (1.25 ppm), in data set [1] (2.5 ppm) and in data set [1] (50 ppm) were 89%, 100% and 100%, respectively. Moreover, the “life and death, general conditions” value in data set [4] is on record as “Neither death nor abnormality of the general conditions was recognized”.
In the case of `O=C(NN=C(c1ccc(Br)cc1)c1ccc(OS(=O)(=O)C(F)(F)F)cc1)C(=O)NC1CC1` [Compound 1-555], the death rate was 40% in data set [2] (0.5 ppm), 100% in data set [2] (5 ppm) and 100% in data set [2] (50 ppm).
`CNC(=O)C(=O)NN=C(c1ccc(Br)cc1)c1ccc(OS(=O)(=O)C(F)(F)F)cc1` [Compound 1-515]: the insecticidal activity (death rate) in data set [1] (1.25 ppm) worked out at 60%; in data set [1] (2.5 ppm) it was 80%; in data set [1] (50 ppm), 100%. The death rate in data set [2] (0.5 ppm) is 75%; in data set [2] (5 ppm), 100%; in data set [2] (50 ppm), 100%.
